Results: patent US20230293611A1, “NATURAL PRODUCT EXTRACTS AND METHODS OF USE THEREOF” (THE ADORED BEAST APOTHECARY LTD., priority 2020, published 2023)

What was measured:
[1] = tested on: MDA-MB-231 cells; test: MTS assay (Example 1); type: cell-based; conditions: Homo sapiens, positive control 50 μM, 24 h, mean±SEM, n=3, read-out: MDA-MB-231 cell viability
Description: (§1) • (a) Solvent extraction: Four different solvents were used, namely, methanol, hexane:ethyl acetate (39:1), ethyl acetate, and water. Briefly, 2 g of the test material (MH/GL) were dissolved in 80 ml of appropriate solvents (methanol/hexane:ethyl acetate/ethyl acetate), sonicated twice for 20 min at room temperature (RT), and centrifuged at 3000 rpm for 10 min. The supernatant was collected and evaporated using a rotary evaporation system at 65° C. The concentrated extract was subjected to nitrogen evaporation to remove all the solvent, then dissolved in DMSO to a final concentration of 60 mg/ml. For water extraction, 2 g of the test material was dissolved in 80 ml water, sonicated twice for 20 min at RT, kept at RT for three days, vortexed, and centrifuged at 3000 rpm for 10 min. The supernatant was then freeze-dried into powder. The powder was dissolved in DMSO to a final concentration of 60 mg/ml. • (b) MTS assay: The potential inhibitory effects of MH and GL extracts on HepG2 and MDA-MB-231 cells were measured using MTS assay. Briefly, 6000 cells were seeded and treated with different concentrations (6.25, 12.5, 25, 50, 100, 150, and 300 μg/ml) of extracts for 24 h. Then, MTS/PMS reagent was added and absorbance was measured at 490 nm using a plate reader. Sorafenib (20 μM) and doxorubicin (50 μM) were used as positive controls for HepG2 and MDA-MB-231 cells, respectively. […]

[2] = tested on: HepG2 cells; test: MTS assay (Example 1); type: cell-based; conditions: Homo sapiens, positive control 20 μM, 24 h, mean±SEM, n=3, read-out: HepG2 cell viability
Description: as §1

| SMILES | viability at 50 µM [1] [%] | viability at 20 µM [2] [%] |
| --- | --- | --- |
| COc1cccc2c1C(=O)c1c(O)c3c(c(O)c1C2=O)C[C@@](O)(C(=O)CO)C[C@@H]3O[C@H]1C[C@H](N)[C@H](O)[C@H](C)O1 [doxorubicin] | 24.4 ± 5.1 |  |
| CNC(=O)c1cc(Oc2ccc(NC(=O)Nc3ccc(Cl)c(C(F)(F)F)c3)cc2)ccn1 [sorafenib] |  | 26 ± 3.7 |
